Laboratory results reported in ChEMBL document CHEMBL5614459, “Conformationally Constrained Isoquinolinones as Orally Efficacious Hepatitis B Capsid Assembly Modulators” (ACS Med Chem Lett, 2024).

Key:
Hepatitis B virus [1] = experiment: Antiviral activity against Hepatitis B virus genotype D infected in HepDE19 cells assessed as inhibition of viral replication by measuring decrease in intracellular rcDNA level by bDNA assay; format: functional, organism-based
[2] = Cytotoxicity against human HepDE19 cells by CellTiter-Glo assay; format: toxicity, cell-based
[3] = Selectivity index, ratio of CC50 for cytotoxicity against human HepDE19 cells to EC50 for antiviral activity against Hepatitis B virus genotype D infected in HepDE19 cells; format: toxicity, cell-based; details: read-out: Ratio CC50/EC50
[4] = Intrinsic clearance in mouse liver microsomes; format: ADME, Microsome; details: read-out: CLH
[5] = Intrinsic clearance in human liver microsomes; format: ADME, Microsome; details: read-out: CLH
[6] = Half life in CD-1 mouse at 10 mg/kg, po; format: ADME, organism-based; details: in vivo
[7] = Cmax in CD-1 mouse at 10 mg/kg, po; format: ADME, organism-based; details: in vivo
[8] = AUC(last) in CD-1 mouse at 10 mg/kg, po; format: ADME, organism-based; details: in vivo
[9] = Drug uptake in CD-1 mouse liver at 10 mg/kg, po or 2 mg/kg, iv measured after 24 hrs; format: ADME, organism-based; details: read-out: Drug uptake
Hepatitis B virus [10] = experiment: Anti-viral activity against Hepatitis B virus infected in mouse assessed as log10 reduction of HBV DNA levels in serum at 3 mg/kg, po qd for 7 days; format: functional; details: time 7 day
Hepatitis B virus [11] = experiment: Anti-viral activity against Hepatitis B virus infected in mouse assessed as log10 reduction of HBV DNA levels in serum at 10 mg/kg, po qd for 7 days; format: functional; details: time 7 day
Hepatitis B virus [12] = experiment: Antiviral activity against Hepatitis B virus genotype D harboring core protein-T33N mutant; format: functional, organism-based
Cytochrome P450 3A4 = Cytochrome P450 3A4 (Homo sapiens, UniProt P08684); experiment: Inhibition of CYP3A4 (unknown origin); format: ADME
Cytochrome P450 2D6 = Cytochrome P450 2D6 (Homo sapiens, UniProt P10635); experiment: Inhibition of CYP2D6 (unknown origin); format: ADME
Cytochrome P450 2C9 = Cytochrome P450 2C9 (Homo sapiens, UniProt P11712); experiment: Inhibition of CYP2C9 (unknown origin); format: ADME
Cytochrome P450 2C19 = Cytochrome P450 2C19 (Homo sapiens, UniProt P33261); experiment: Inhibition of CYP2C19 (unknown origin); format: ADME
Cytochrome P450 2B6 = molecular target: T1, Cytochrome P450 2B6 (Homo sapiens, UniProt P20813); experiment: Inhibition of CYP2B6 (unknown origin); format: ADME
T1 sequence (P20813 whole entry): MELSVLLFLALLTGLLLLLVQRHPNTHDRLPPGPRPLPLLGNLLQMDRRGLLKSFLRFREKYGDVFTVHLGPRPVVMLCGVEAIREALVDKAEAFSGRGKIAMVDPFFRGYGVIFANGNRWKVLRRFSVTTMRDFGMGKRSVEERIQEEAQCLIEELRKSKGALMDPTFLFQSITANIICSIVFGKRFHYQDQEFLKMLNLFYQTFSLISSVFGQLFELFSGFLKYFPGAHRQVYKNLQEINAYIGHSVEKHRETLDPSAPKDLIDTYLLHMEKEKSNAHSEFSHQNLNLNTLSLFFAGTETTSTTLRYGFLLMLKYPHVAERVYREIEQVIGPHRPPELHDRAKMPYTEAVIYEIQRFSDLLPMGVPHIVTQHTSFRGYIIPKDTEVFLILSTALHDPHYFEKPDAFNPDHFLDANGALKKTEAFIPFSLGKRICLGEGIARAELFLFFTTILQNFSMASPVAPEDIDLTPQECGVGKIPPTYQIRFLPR

[13] = Hepatitis B virus, genotype D, HepDE19

Chain of Cytochrome P450 3A4 (P08684 whole entry): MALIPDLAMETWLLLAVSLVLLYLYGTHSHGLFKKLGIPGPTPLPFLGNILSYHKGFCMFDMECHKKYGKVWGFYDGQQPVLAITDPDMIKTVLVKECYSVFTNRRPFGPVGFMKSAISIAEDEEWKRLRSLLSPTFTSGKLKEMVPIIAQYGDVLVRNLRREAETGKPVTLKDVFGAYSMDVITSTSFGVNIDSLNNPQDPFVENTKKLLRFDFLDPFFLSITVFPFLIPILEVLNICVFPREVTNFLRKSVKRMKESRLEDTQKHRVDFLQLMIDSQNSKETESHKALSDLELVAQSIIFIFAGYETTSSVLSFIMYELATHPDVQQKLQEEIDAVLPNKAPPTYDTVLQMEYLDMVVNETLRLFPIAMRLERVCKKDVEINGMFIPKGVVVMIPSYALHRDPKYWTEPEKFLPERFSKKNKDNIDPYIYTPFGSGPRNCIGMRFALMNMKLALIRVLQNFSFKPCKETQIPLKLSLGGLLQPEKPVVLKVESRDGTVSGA
Chain of Cytochrome P450 2C19 (P33261 whole entry): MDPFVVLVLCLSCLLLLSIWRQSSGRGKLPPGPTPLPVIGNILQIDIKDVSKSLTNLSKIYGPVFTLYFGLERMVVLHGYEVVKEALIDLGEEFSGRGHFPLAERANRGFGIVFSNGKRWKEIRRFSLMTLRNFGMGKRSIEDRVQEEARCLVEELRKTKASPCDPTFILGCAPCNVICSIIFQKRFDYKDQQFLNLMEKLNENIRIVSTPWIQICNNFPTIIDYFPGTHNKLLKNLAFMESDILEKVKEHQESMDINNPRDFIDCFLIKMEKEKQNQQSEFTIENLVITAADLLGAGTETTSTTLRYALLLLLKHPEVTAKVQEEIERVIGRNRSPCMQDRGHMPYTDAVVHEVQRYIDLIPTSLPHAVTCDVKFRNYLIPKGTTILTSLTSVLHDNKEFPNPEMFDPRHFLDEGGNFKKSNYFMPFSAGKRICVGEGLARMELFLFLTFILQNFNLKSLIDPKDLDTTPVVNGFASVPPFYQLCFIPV
Chain of Cytochrome P450 2D6 (P10635 whole entry): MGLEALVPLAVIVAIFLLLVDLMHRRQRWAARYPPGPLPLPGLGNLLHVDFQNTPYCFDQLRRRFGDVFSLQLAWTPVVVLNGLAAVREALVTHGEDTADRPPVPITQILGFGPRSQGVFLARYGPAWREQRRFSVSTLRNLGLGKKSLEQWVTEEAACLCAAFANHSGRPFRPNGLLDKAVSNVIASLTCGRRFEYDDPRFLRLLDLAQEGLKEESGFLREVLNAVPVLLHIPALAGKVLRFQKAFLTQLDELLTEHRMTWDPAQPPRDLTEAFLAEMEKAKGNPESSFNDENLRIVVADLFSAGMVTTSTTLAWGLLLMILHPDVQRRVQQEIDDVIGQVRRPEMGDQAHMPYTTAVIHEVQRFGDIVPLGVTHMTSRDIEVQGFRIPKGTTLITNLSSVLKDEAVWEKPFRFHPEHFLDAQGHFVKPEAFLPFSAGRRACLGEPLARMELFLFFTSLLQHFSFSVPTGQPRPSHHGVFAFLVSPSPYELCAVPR
Chain of Cytochrome P450 2C9 (P11712 whole entry): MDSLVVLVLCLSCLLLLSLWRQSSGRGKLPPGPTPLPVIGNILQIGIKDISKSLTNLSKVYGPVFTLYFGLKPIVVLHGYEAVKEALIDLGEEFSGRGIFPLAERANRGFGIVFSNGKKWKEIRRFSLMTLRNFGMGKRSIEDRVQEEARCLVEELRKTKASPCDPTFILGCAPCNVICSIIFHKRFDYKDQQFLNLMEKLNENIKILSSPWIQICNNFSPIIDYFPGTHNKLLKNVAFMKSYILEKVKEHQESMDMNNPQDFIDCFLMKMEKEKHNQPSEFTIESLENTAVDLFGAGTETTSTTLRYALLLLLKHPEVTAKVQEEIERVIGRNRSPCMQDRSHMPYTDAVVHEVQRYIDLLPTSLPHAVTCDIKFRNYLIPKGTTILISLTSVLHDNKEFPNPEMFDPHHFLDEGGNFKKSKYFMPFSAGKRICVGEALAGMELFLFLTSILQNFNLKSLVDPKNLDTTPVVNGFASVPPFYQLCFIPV

Structure (SMILES)	EC50 (Hepatitis B virus [1]; [13])	CC50 [2]	selectivity ratio [3]	also measured
CN(C(=O)Nc1ccc(F)c(Cl)c1)C1CCc2[nH]c(=O)c3ccccc3c21 (racemic)	0.087 µM	> 10 µM	> 1500	–
CN(C(=O)c1cc2cccc(F)c2[nH]1)C1COCc2[nH]c(=O)c3cc(F)c(F)cc3c21 (configuration not stated)	0.011 µM	> 10 µM	> 1500	microsomal CLint [4]: 57 µL/min/mg; microsomal CLint [5]: 81 µL/min/mg
CN(C(=O)c1cc2cc(F)ccc2[nH]1)[C@@H]1COCc2[nH]c(=O)c3cc(F)c(F)cc3c21	0.004 µM	> 10 µM	> 1500	microsomal CLint [4]: 48 µL/min/mg; microsomal CLint [5]: 95 µL/min/mg
CN(C(=O)Nc1ccc(F)c(Cl)c1)[C@@H]1CNCc2[nH]c(=O)c3cc(F)c(F)cc3c21	0.009 µM	> 10 µM	> 1500	microsomal CLint [4]: 23 µL/min/mg; microsomal CLint [5]: 86 µL/min/mg
CN(C(=O)Nc1cc(F)c(F)c(F)c1)[C@@H]1COCc2[nH]c(=O)c3cc(F)c(F)cc3c21	0.018 µM	> 10 µM	> 1500	–
CN(C(=O)Nc1ccc(F)c(Cl)c1)C1CCCc2[nH]c(=O)c3ccccc3c21 (racemic)	–	> 10 µM	> 1500	EC50 (Hepatitis B virus [1]; hepde19): 0.084 µM
CN(C(=O)Nc1ccc(F)c(Cl)c1)[C@@H]1CN(CCO)Cc2[nH]c(=O)c3cc(F)c(F)cc3c21	1.36 µM	> 10 µM	> 1500	–
CN(C(=O)Nc1ccc(F)c(Cl)c1)C1CCCc2[nH]c(=O)c3cc(F)c(F)cc3c21 (stereo in doubt)	–	–	–	EC50 (Hepatitis B virus [1]; hepde19): 1.03 µM
CN(C(=O)Nc1ccccc1)[C@@H]1COCc2[nH]c(=O)c3cc(F)c(F)cc3c21	0.033 µM	> 10 µM	> 1500	–
CC(C)CN(C(=O)Nc1ccc(F)c(Cl)c1)[C@@H]1CCc2[nH]c(=O)c3ccccc3c21	0.007 µM	> 10 µM	> 1500	–
CN(C(=O)Nc1ccc(F)c(C(F)F)c1)[C@@H]1COCc2[nH]c(=O)c3cc(F)c(F)cc3c21	0.006 µM	> 10 µM	> 1500	half-life [6]: 2.9 h; Cmax [7]: 2340 ng/mL; AUC(0-t) [8]: 20800 ng·h/mL; concentration at 24 h [9]: 135 ng/g; log(activity) (Hepatitis B virus [10]): 1.68; log(activity) (Hepatitis B virus [11]): 2.68; EC50 (Hepatitis B virus [12]): 0.227 µM
CN(C(=O)Nc1ccc(F)c(Cl)c1)C1CCCc2[nH]c(=O)c3c(F)c(F)ccc3c21 (racemic)	0.44 µM	> 10 µM	> 1500	–
CN(C(=O)c1cc2ccccc2[nH]1)[C@@H]1COCc2[nH]c(=O)c3cc(F)c(F)cc3c21	0.009 µM	> 10 µM	> 1500	microsomal CLint [4]: 70 µL/min/mg; microsomal CLint [5]: 91 µL/min/mg
CN1Cc2[nH]c(=O)c3cc(F)c(F)cc3c2[C@H](N(C)C(=O)Nc2ccc(F)c(Cl)c2)C1	0.18 µM	> 10 µM	> 1500	–
CN(C(=O)Nc1ccc(F)c(Cl)c1)C1CCCc2[nH]c(=O)c3ccccc3c21 (stereo in doubt; 2b)	–	–	–	EC50 (Hepatitis B virus [1]; hepde19): 0.045 µM
CN(C(=O)Nc1ccc(F)c(Cl)c1)C1CCCc2[nH]c(=O)c3cc(F)c(F)cc3c21 (racemic)	–	> 10 µM	–	EC50 (Hepatitis B virus [1]; hepde19): 0.019 µM
CN(C(=O)Nc1ccc(F)c(Cl)c1)C1CCCc2[nH]c(=O)c3ccccc3c21 (stereo in doubt)	–	–	–	EC50 (Hepatitis B virus [1]; hepde19): 0.76 µM
CN(C(=O)Nc1ccc(F)c(Cl)c1)C1CCCc2[nH]c(=O)c3cc(F)cc(F)c3c21 (racemic)	0.51 µM	> 10 µM	> 1500	–
CN(C(=O)Nc1ccc(F)c(Cl)c1)[C@@H]1COCc2[nH]c(=O)c3cc(F)c(F)cc3c21	0.007 µM	> 10 µM	> 1500	IC50 (Cytochrome P450 3A4): > 15 µM; IC50 (Cytochrome P450 2D6): > 15 µM; IC50 (Cytochrome P450 2C9): > 15 µM; IC50 (Cytochrome P450 2C19): > 15 µM; IC50 (Cytochrome P450 2B6): > 15 µM; microsomal CLint [4]: 27 µL/min/mg; microsomal CLint [5]: 54 µL/min/mg; half-life [6]: 3.1 h; Cmax [7]: 690 ng/mL; AUC(0-t) [8]: 6990 ng·h/mL; concentration at 24 h [9]: 150 ng/g; log(activity) (Hepatitis B virus [10]): 1.04; log(activity) (Hepatitis B virus [11]): 2.86; EC50 (Hepatitis B virus [12]): 0.4 µM
CN(C(=O)c1cc2cc(F)c(F)c(F)c2[nH]1)[C@@H]1COCc2[nH]c(=O)c3cc(F)c(F)cc3c21	0.005 µM	> 10 µM	> 1500	microsomal CLint [4]: 20 µL/min/mg; microsomal CLint [5]: 31 µL/min/mg; half-life [6]: 10.8 h; Cmax [7]: 1080 ng/mL; AUC(0-t) [8]: 15900 ng·h/mL; concentration at 24 h [9]: 3230 ng/g
CN(C(=O)Nc1ccc(F)c(Cl)c1)C1CCCc2[nH]c(=O)c3cc(F)c(F)cc3c21 (stereo in doubt; 8)	–	–	–	EC50 (Hepatitis B virus [1]; hepde19): 0.012 µM; IC50 (Cytochrome P450 3A4): < 10 µM; IC50 (Cytochrome P450 2D6): 4.3 µM; IC50 (Cytochrome P450 2C19): < 10 µM; IC50 (Cytochrome P450 2B6): < 10 µM
CN(C(=O)Nc1ccc(F)c(Cl)c1)[C@@H]1CCc2[nH]c(=O)c3ccccc3c21	0.045 µM	> 10 µM	> 1500	–
CC(C)CN(C(=O)Nc1ccc(F)c(Cl)c1)C1CCCc2[nH]c(=O)c3ccccc3c21 (racemic)	0.47 µM	> 10 µM	> 1500	–
CN(C(=O)Nc1ccc(F)c(Cl)c1)C1CCCCc2[nH]c(=O)c3ccccc3c21 (racemic)	0.15 µM	> 10 µM	> 1500	–
CN(C(=O)Nc1ccc(F)c(C#N)c1)[C@@H]1COCc2[nH]c(=O)c3cc(F)c(F)cc3c21	0.008 µM	> 10 µM	> 1500	half-life [6]: 2.4 h; Cmax [7]: 720 ng/mL; AUC(0-t) [8]: 4330 ng·h/mL; concentration at 24 h [9]: 8 ng/g
CN(C(=O)c1cc2ccc(F)cc2[nH]1)[C@@H]1COCc2[nH]c(=O)c3cc(F)c(F)cc3c21	0.009 µM	> 10 µM	> 1500	microsomal CLint [4]: 44 µL/min/mg; microsomal CLint [5]: 53 µL/min/mg
CN(C(=O)Nc1ccc(F)c(Cl)c1)[C@@H]1CSCc2[nH]c(=O)c3cc(F)c(F)cc3c21	0.021 µM	> 10 µM	> 1500	microsomal CLint [4]: 112 µL/min/mg; microsomal CLint [5]: 216 µL/min/mg
CN(C(=O)Nc1ccc(F)c(Cl)c1)C1CCCc2[nH]c(=O)c3cc(F)ccc3c21 (racemic)	0.031 µM	> 10 µM	> 1500	–
